How the values were obtained:
Assay type in all cases: physicochemical
[1] = Solubility in water at 25° C.
[2] = Interfacial tension, Du Nouys ring tensiometer (Example 14), interface with ISOPAR M; settings: 1% by weight solution, neutral pH (5 M NaOH)
Description: (§1) Surfactant molecules were tested for their ability to decrease the surface tension across the aqueous-organic interface.

[3] = Interfacial tension, Du Nouys ring tensiometer (Example 14), interface with light crude oil; settings: 1% by weight solution, neutral pH (5 M NaOH); light crude oil API=37.4°
Description: as §1

[4] = Viscosity of 70:30 heavy oil to water mixture, Brookfield rheometer (Example 16)
Description: The mixture was gently stirred until it was observed it achieved a single liquid phase. Previously, the viscosity of the neat heavy oil sample was measured at 3431 cP using a Brookfield DVIII+ Rheometer. […] Next, 1 mL of 10 M HCl was added and the mixture was stirred gently, while observing phase separation of the oil and water.

[5] = Interfacial tension, Du Nouys ring tensiometer (Example 14), interface with air; settings: 1% by weight solution, neutral pH (5 M NaOH)
Description: as §1

Compound	solubility in water (in words) [1]	IFT w/ISOPAR [2] [mN/m]	IFT w/Crude Oil [3] [mN/m]	viscosity of the 70:30 oil to water mixture ([4]; 105 mL heavy oil + 45 mL 1% surfactant solution, neat heavy oil 3431 cP) [cP]	viscosity of oil decanted after phase separation with HCl ([4]; after addition of 1 mL of 10 M HCl to the 70:30 mixture)	IFT w/air [5] [mN/m]
CCCCCC/C=C/CC(CC(=O)OCC(C)(C)COC(=O)CC(C/C=C/CCCCCC)C(=O)O)C(=O)O (stereo not drawn) [Example 2]	very limited solubility in water	–	–	–	–	–
2-(nonen-1-yl)succinic acid mono (2-cyclohexylethyl) ester [Example 3]	–	0.09	<0.01	100.2	same viscosity measurement as the untreated heavy oil sample	28.68

Source: patent US8969612B2, “Low interfacial tension surfactants for petroleum applications” (Soane Energy, LLC, priority 2009, dated 2015)
